Experimental data reported in US8815834B2, “Use of dendrimers to stimulate cell growth” (Centre National de la Recherche Scientifique, priority 2004, dated 2014).

Tested on: human NK cells
Assay: Culture of PBMC with dendrimer and IL2: amplification and phenotype of NK cells
Details: in particular at a concentration of 20 μM; FIG. 4B
Procedure: Peripheral blood mononuclear cells (PBMC) obtained from a healthy adult human donor by centrifugation over a density gradient (Ficoll-Hypaque, Amersham Pharmacia Biotech, Upsalla, SWEDEN) are cultured in sterile cell culture flasks at a concentration of 1.5 million cells per ml of culture medium of the RPMI 1640 type, 25 mM Hepes/Ultraglutamine 1 (Cambrex Bio Science, Verviers, BELGIUM) supplemented with: • i) 1 mM sodium pyruvate (Invitrogen Corporation, Paisley, UNITED KINGDOM) • ii) 100 μg/ml of streptomycin and 100 U/ml of penicillin (Cambrex Bio Science, Verviers, BELGIUM); • iii) 10% by volume of foetal calf serum (Invitrogen Corporation, Paisley, UNITED KINGDOM) decomplemented for 30 minutes at 56° C. (FCS); • iv) 20 μM of GC1 dendrimer solubilized at a concentration of 2 mM in sterile non-pyrogenic PBS; • v) 200 U/ml of human recombinant IL2 (Sanofi-Synthelabo, Paris, FRANCE) is added to the culture medium thus produced. […]
The PBMCs obtained from a healthy adult human donor are cultured for 15 days with GC1 then counted by total counting of the living cells (Ntot). […]
The NK cells obtained starting with PBMCs from healthy donors cultured under the conditions described previously are counted, at the start of the experiment then at the end of 3.5 weeks of culture. […]

O=P(O)(O)CN(CCc1ccc(O)cc1)CP(=O)(O)O [phenol-azabisphosphonic monomer derived from tyramine]
Immunostimulant properties on the in vitro amplification of human NK cells: inactive
